pIC50: −log10 of the molar value.
Experiments:
in vivo = settings: mouse, ip, 20 mg/kg
Experimental: (§1) The pharmacokinetics of TH2870 were determined in Mouse/Nu-Foxn 1^nu NU/NU mice with A549 (non small cell lung), A375 (melanoma) and 786-O (renal cell) human tumor xenograft models following a single intraperitoneal dose of 20 mg/kg.

DU145 = test: TH2870 sensitivity in prostate cancer cell lines; assay type: cell-based; settings: Homo sapiens, DU-145
HuCCT1 = test: TH2870 sensitivity in liver cancer cells; assay type: cell-based, human
[1] = tested on: A 549 non-small cell lung xenograft; test: Example 4-B antitumor efficacy, ectopic A549 NSCLC xenograft model; assay type: in vivo, female nude mice (nu/nu); settings: 20 mg/kg ip QD × 5/wk × 2 wks
MDA-Pca-2b = test: TH2870 sensitivity in prostate cancer cell lines; assay type: cell-based; settings: Homo sapiens
SNU-182 = test: TH2870 sensitivity in liver cancer cells; assay type: cell-based, human; settings: AKR1C3 expression /
LNCap = test: TH2870 sensitivity in prostate cancer cell lines; assay type: cell-based; settings: Homo sapiens
LIXC-066 = test: TH2870 sensitivity in liver cancer cells; assay type: cell-based, human; settings: AKR1C3 expression ++
PC-3 = test: TH2870 sensitivity in prostate cancer cell lines; assay type: cell-based; settings: Homo sapiens
[2] = Example 4-I body weight change, H460 xenograft study; assay type: in vivo, female nude mice (nu/nu); settings: iv, Q7D × 3
Experimental: Cells were mixed with Matrigel (50% with exception for 30% in the H460) and 0.2 ml per mouse were subcutaneously implanted to the flank area of the animals. When tumor size reached 100-150 250 mm3, mice were randomized into experimental or vehicle groups with 10 mice/group and treatment was started (Day 1). The tested compounds were formulated in 5% DMSO in D5W. The regimens employed in the examples include IP, QD×5/wk (5 days on, 2 days off) as one cycle, for a total of 2 cycles; IP, once; IP, weekly for total 3 weeks; and IV, weekly for 3 weeks. Tumor growth and body weight were measured twice a week. Tumor volume was calculated as (length×width2)/2. Drug efficacy was assessed as Tumor Growth Inhibition (TGI) and Tumor Growth Delay (TGD). TGI was defined as (1−ΔT/ΔC)×100, where ΔT/ΔC presented the ratio of the change in mean (or median, if variation within the group was relatively large) tumor volume of the treated group and of the control group. TGD was calculated as the extra days for the treated tumor to reach 500 mm3 or 1000 mm3 as compared to the control group. Animals were culled when individual tumor size reached over 2000 mm3 or mean tumor volume exceeded 1000 mm3 in the group. Data are expressed as the mean±SEM. One-way analysis of variance with Dunnett post comparison test (GraphPad Prism 4) or two-tailed student's t-test were used for analysis. A P level <0.05 was considered statistically significant.
The compound TH-2870 was tested in a H460 model. The compound was dosed follows. 1.5, 5 or 15 mg/kg, IV, weekly for 3 weeks at 250 mm^3 tumors on day 1 (10 animals per group average tumor volume), comparing with docetaxel. The antitumor effects and the safety of administration are graphically illustrated below.

C3A = test: TH2870 sensitivity in liver cancer cells; assay type: cell-based, human; settings: AKR1C3 expression ++++
LIXC-012 = test: TH2870 sensitivity in liver cancer cells; assay type: cell-based, human; settings: AKR1C3 expression ++++
LIXC-011 = test: TH2870 sensitivity in liver cancer cells; assay type: cell-based, human; settings: AKR1C3 expression ++++
HLE = test: TH2870 sensitivity in liver cancer cells; assay type: cell-based, human; settings: AKR1C3 expression ++
[3] = Pharmacokinetics of TH2870 in CD-1 mice, single IV bolus and single IP dose; settings: mouse, in vivo
Experimental: The pharmacokinetics of TH2870 in CD-1 mice following a single intravenous bolus dose (5 mg/kg) and a single intraperitoneal dose (10 mg/kg) were determined.

LIXC-002 = test: TH2870 sensitivity in liver cancer cells; assay type: cell-based, human; settings: AKR1C3 expression +++
HLF = test: TH2870 sensitivity in liver cancer cells; assay type: cell-based, human; settings: AKR1C3 expression /
SK-HEP-1 = test: TH2870 sensitivity in liver cancer cells; assay type: cell-based, human
SNU-475 = test: TH2870 sensitivity in liver cancer cells; assay type: cell-based, human; settings: AKR1C3 expression ++++
[4] = Example 4-B body weight change, A549 xenograft study; assay type: in vivo, female nude mice (nu/nu); settings: 20 mg/kg ip QD × 5/wk × 2 wks
PLC/PRF/5 = test: TH2870 sensitivity in liver cancer cells; assay type: cell-based, human; settings: AKR1C3 expression +++
[5] = Nu-Foxn1nu NU/NU, mouse, in vivo, ip, 20 mg/kg
Experimental: as §1

[6] = Homo sapiens, read-out: RelIC50

CC(OP(=O)(N1CC1)N1CC1)c1ccc([N+](=O)[O-])c(Oc2cccc(C(=O)N(C)C)c2)c1 (stereo not shown) [Compound 2870]
Kp (in vivo; Nu-Foxn1nu NU/NU): 0.0079 to 0.326
Tmax (in vivo; Nu-Foxn1nu NU/NU): 5 min
AUC (in vivo; Nu-Foxn 1nu NU/NU, AUC): 1570 ng·h/mL
Cmax (in vivo; Nu-Foxn 1nu NU/NU, Cmax): 5010 ng/mL
half-life (in vivo; Nu-Foxn 1nu NU/NU, Half-Life): 11.3 min
pIC50 (DU145): 7.37
Max Inhibition % (HuCCT1; AKR1C3 expression +): 66.7%
pIC50 (HuCCT1; Homo sapiens, HuCCT-1, AKR1C3 expression +, read-out: RelIC50): 6.90
TGD 500 [1]: >72 days
TGI [1]: 102.3%
pIC50 (MDA-Pca-2b): < 6.52
Max Inhibition % (SNU-182): 19.4%
pIC50 (SNU-182; [6]): < 6.00
pIC50 (LNCap): 6.79
Max Inhibition % (LIXC-066): 75.4%
pIC50 (LIXC-066; [6]): 7.03
pIC50 (PC-3): 6.79
Max. BW loss % ([2]; 1.5 mg/kg): 7.6%
Max. BW loss % ([2]; 5 mg/kg): 7.6%
Max. BW loss % ([2]; 15 mg/kg): 5.8%
Max Inhibition % (C3A): 98.1%
pIC50 (C3A; [6]): 8.15
Max Inhibition % (LIXC-012): 87.1%
Max Inhibition % (LIXC-011): 97.4%
pIC50 (LIXC-011; [6]): 7.39
Max Inhibition % (HLE): 80.5%
pIC50 (HLE; [6]): 7.07
AUC ([3]; IP 10 mg/kg): 725 ng·h/mL
Cmax ([3]; IP 10 mg/kg): 4020 ng/mL
Tmax ([3]; IP 10 mg/kg): 5 min
half-life ([3]; IP 10 mg/kg): 9 min
AUC ([3]; IV bolus 5 mg/kg): 963 ng·h/mL
Cmax ([3]; IV bolus 5 mg/kg): 6790 ng/mL
Tmax ([3]; IV bolus 5 mg/kg): 2 min
clearance ([3]; IV bolus 5 mg/kg): 86.5 mL/min/kg
half-life ([3]; IV bolus 5 mg/kg): 6.56 min
Vd ([3]; IV bolus 5 mg/kg, read-out: Vss): 0.668 L/kg
Max Inhibition % (LIXC-002): 99.1%
pIC50 (LIXC-002; [6]): 7.25
Max Inhibition % (HLF): 22.5%
pIC50 (HLF; [6]): < 6.00
Max Inhibition % (SK-HEP-1; AKR1C3 expression /): 44.3%
pIC50 (SK-HEP-1; Homo sapiens, SK-HEP1, AKR1C3 expression /, read-out: RelIC50): < 6.00
Max Inhibition % (SNU-475): 100.4%
pIC50 (SNU-475; [6]): 8.10
Max. BW loss % [4]: 1.6%
Max Inhibition % (PLC/PRF/5): 53.3%
activation of TH2870 in liver (TH2660 relative to TH2870) [5]: ~13 fold
activation of TH2870 in tumor (TH2660 relative to TH2870) [5]: ~148 fold

— US10766914B2, “DNA alkylating agents” (OBI PHARMA, INC., priority 2015, dated 2020)
